Assay results taken from ChEMBL document CHEMBL4130430, “Efficacy of a series of alpha-pyrone derivatives against Leishmania (L.) infantum and Trypanosoma cruzi” (Eur J Med Chem, 2017).
Activity calls are given as the source filed them. The calls are words filed in the database; no cut-off is given here.

Legend:
Leishmania infantum [1] = assay: Antileishmanial activity against Leishmania infantum MHOM/BR/1972/LD amastigotes infected in BALB/c mouse peritoneal macrophages assessed as parasite viability after 72 hrs by Giemsa staining-based light microscopic analysis; type: functional, organism-based
Trypanosoma cruzi [2] = assay: Antitrypanosomal activity against Trypanosoma cruzi Y trypomastigotes assessed as parasite viability after 24 hrs by resazurin staining-based hemocytometric analysis; type: functional, organism-based
Leishmania infantum [3] = assay: Antileishmanial activity against Leishmania infantum MHOM/BR/1972/LD promastigotes assessed as parasite viability up to 200 uM after 48 hrs by MTT assay; type: functional, organism-based
L929 = assay: Cytotoxicity against mouse NCTC-929 cells after 72 hrs by MTT assay; type: cell-based; conditions: L929, 72 h
[4] = Selectivity index, ratio of IC50 for mouse NCTC-929 cells to IC50 for Leishmania infantum MHOM/BR/1972/LD amastigotes infected in BALB/C mouse peritoneal macrophages; type: toxicity; conditions: read-out: Ratio IC50
[5] = Selectivity index, ratio of IC50 for mouse NCTC-929 cells to IC50 for Trypanosoma cruzi Y trypomastigotes; type: toxicity; conditions: NCTC-929 cells versus Trypanosoma cruzi Y trypomastigotes, read-out: Ratio IC50
Leishmania infantum [6] = assay: Antileishmanial activity against Leishmania infantum MHOM/BR/1972/LD amastigotes infected in BALB/c mouse peritoneal macrophages assessed as parasite viability up to 200 uM after 72 hrs by Giemsa staining-based light microscopic analysis; type: functional, organism-based
Trypanosoma cruzi [7] = assay: Antitrypanosomal activity against Trypanosoma cruzi Y trypomastigotes assessed as parasite viability up to 200 uM after 24 hrs by resazurin staining-based hemocytometric analysis; type: functional, organism-based
Leishmania infantum [8] = assay: Antileishmanial activity against Leishmania infantum MHOM/BR/1972/LD promastigotes assessed as parasite viability after 48 hrs by MTT assay; type: functional, organism-based
Trypanosoma cruzi [9] = assay: Induction of plasma membrane permeabilization in Trypanosoma cruzi Y trypomastigotes at IC50 to IC90 measured every 1 hr up to 7 hrs by Sytox Green staining-based fluorimetric analysis; type: functional, organism-based
Trypanosoma cruzi [10] = assay: Induction of mitochondrial membrane hyperpolarization in Trypanosoma cruzi Y trypomastigotes assessed as increase in fluorescence at IC50 after 2 hrs by rhodamine123/propidium iodide staining-based flow cytometric analysis relative to control; type: functional
Trypanosoma cruzi [11] = assay: Induction of mitochondrial membrane hyperpolarization in Trypanosoma cruzi Y trypomastigotes assessed as increase in fluorescence at IC90 after 2 hrs by rhodamine123/propidium iodide staining-based flow cytometric analysis relative to control; type: functional
Trypanosoma cruzi [12] = assay: Antitrypanosomal activity against Trypanosoma cruzi Y infected in BALB/c mouse assessed as reduction in blood parasitemia at 30 mg/kg, ip administered every day starting on day 5 post infection measured on day 8 post infection; type: functional, organism-based
Trypanosoma cruzi [13] = assay: Antitrypanosomal activity against Trypanosoma cruzi Y infected in BALB/c mouse assessed as reduction in blood parasitemia at 30 mg/kg/day, ip dosed administered for 10 consecutive days starting on day 5 post infection measured on day 14 post infection relative to control; type: functional; set-up: scale not given: the % may be the effect or the level left
Mus musculus [14] = assay: Toxicity in BALB/c mouse infected with Trypanosoma cruzi Y assessed as mortality at 30 mg/kg/day, ip administered for 10 consecutive days starting on day 5 post infection measured during compound dosing; type: organism-based; conditions: in vivo
Mus musculus [15] = assay: Hepatotoxicity in BALB/c mouse infected with Trypanosoma cruzi Y assessed as hydropic degeneration of hepatocytes at 30 mg/kg/day, ip dosed for 10 consecutive days by hematoxylin and eosin staining-based light microscopic analysis; type: toxicity, organism-based; conditions: in vivo
Trypanosoma cruzi [16] = assay: Antitrypanosomal activity against Trypanosoma cruzi Y intracellular amastigotes infected in BALB/c mouse peritoneal macrophages at 25 uM after 48 hrs by Giemsa staining-based light microscopic analysis; type: functional
Trypanosoma cruzi [17] = assay: Induction of mitochondrial membrane hyperpolarization in Trypanosoma cruzi Y trypomastigotes after 1 hr by rhodamine123/propidium iodide staining-based flow cytometric analysis; type: functional, organism-based
Trypanosoma cruzi [18] = assay: Potency index, ratio of benznidazole IC50 to test compound IC50 for Trypanosoma cruzi Y trypomastigotes; type: functional
Trypanosoma cruzi [19] = assay: Antitrypanosomal activity against Trypanosoma cruzi Y infected in BALB/c mouse assessed as reduction in blood parasitemia at 100 mg/kg, po administered every day starting on day 5 post infection measured on day 8 post infection; type: functional; set-up: scale not given: the % may be the effect or the level left
Mus musculus [20] = assay: Toxicity in BALB/c mouse infected with Trypanosoma cruzi Y assessed as mortality at 100 mg/kg/day, po administered for 10 consecutive days starting on day 5 post infection measured during compound dosing; type: organism-based; conditions: in vivo
Trypanosoma cruzi [21] = assay: Antitrypanosomal activity against Trypanosoma cruzi Y infected in BALB/c mouse assessed as reduction in blood parasitemia at 100 mg/kg/day, […] dosed administered for 10 consecutive days starting on day 5 post infection measured on day 14 post infection relative to control; type: functional; set-up: scale not given: the % may be the effect or the level left

Compound | IC50 (Trypanosoma cruzi [2]) | Activity (Leishmania infantum [3]) | IC50 (L929) | selectivity ratio [5] | Activity (Leishmania infantum [6]) | Activity (Trypanosoma cruzi [7]) | also measured
Cc1cc(O)c(C(=O)CCC2CCCCC2)c(=O)o1 | 4.4 µM | inactive | 117 µM | 26.8 | – | – | IC50 (Leishmania infantum [1]): 39.2 µM; selectivity ratio [4]: 2.9
CCCCCCCC(=O)c1c(O)cc(C)oc1=O | 25.7 µM | inactive | 140 µM | 5.4 | inactive | – | –
Cc1cc(O)c(C(=O)NCc2ccccc2)c(=O)o1 | – | inactive | > 200 µM | – | – | inactive | IC50 (Leishmania infantum [1]): 52.8 µM; selectivity ratio [4]: 5
CCCCCCCCCCCCCCCCOP(=O)([O-])OCC[N+](C)(C)C [MILTEFOSINE] | – | – | 241 µM | 32.6 | – | – | IC50 (Leishmania infantum [8]): 16.2 µM; IC50 (Leishmania infantum [1]): 7.4 µM
Cc1cc(O)c(C(=O)NCCCc2ccccc2)c(=O)o1 | 81.4 µM | inactive | 143 µM | 1.7 | inactive | – | –
CCCCCCCCCCCCCCCC(=O)c1c(O)cc(C)oc1=O | 66.3 µM | inactive | 164 µM | 2.5 | inactive | – | –
CCCCCCCCCCCCCC(=O)c1c(O)cc(C)oc1=O | 2.6 µM | inactive | > 200 µM | > 77.5 | inactive | – | Activity (Trypanosoma cruzi [9]): inactive; Activity (Trypanosoma cruzi [10]): 25%; Activity (Trypanosoma cruzi [11]): 26%; Activity (Trypanosoma cruzi [12]): inactive; Activity (Trypanosoma cruzi [13]): 55%; Activity (Mus musculus [14]): Non-Toxic; Activity (Mus musculus [15]): Non-Toxic; Activity (Trypanosoma cruzi [16]): 14%; Activity (Trypanosoma cruzi [17]): Dose-dependent effect; Ratio IC50 (Trypanosoma cruzi [18]): 6
Cc1cc(O)c(C(=O)Nc2ccccc2)c(=O)o1 | – | inactive | > 200 µM | – | inactive | inactive | –
CCCCCC(=O)c1c(O)cc(C)oc1=O | – | inactive | > 200 µM | – | – | inactive | IC50 (Leishmania infantum [1]): 13.8 µM; selectivity ratio [4]: > 14.5
CCCCCCCCCCCCCCc1c(O)cc(C)oc1=O | 4.9 µM | inactive | 24.1 µM | 4.9 | inactive | – | –
CCCCCCCCCCCCCCNC(=O)c1c(O)cc(C)oc1=O | – | inactive | > 200 µM | – | inactive | inactive | –
CCCCCCc1c(O)cc(C)oc1=O | – | inactive | > 200 µM | – | inactive | inactive | –
Cc1cc(O)c(C(=S)Nc2ccccc2)c(=O)o1 | – | inactive | > 200 µM | – | – | inactive | IC50 (Leishmania infantum [1]): > 100 µM
Cc1cc(O)c(C(=O)NCCc2ccccc2)c(=O)o1 | – | inactive | 178 µM | – | – | inactive | IC50 (Leishmania infantum [1]): 46.8 µM; selectivity ratio [4]: 3.8
CCCCCCCCCCc1c(O)cc(C)oc1=O | – | – | 56 µM | – | inactive | inactive | IC50 (Leishmania infantum [8]): 118 µM
CCCCCCCCCC(=O)c1c(O)cc(C)oc1=O | 17.5 µM | inactive | 134 µM | 7.6 | inactive | – | –
O=C(Cn1ccnc1[N+](=O)[O-])NCc1ccccc1 [BENZNIDAZOLE] | 16.2 µM | – | > 200 µM | > 36 | – | – | Activity (Trypanosoma cruzi [19]): 100%; Activity (Mus musculus [20]): Non-Toxic; Activity (Trypanosoma cruzi [21]): 100%
CCCCCCNC(=O)c1c(O)cc(C)oc1=O | 72.6 µM | inactive | 196 µM | 2.7 | – | – | IC50 (Leishmania infantum [1]): 54 µM; selectivity ratio [4]: 3.6
CCCCCCCCCCCCCCCCc1c(O)cc(C)oc1=O | 26.6 µM | inactive | 38.2 µM | 1.4 | inactive | – | –
Cc1cc(O)c(C(=O)C2CCCCC2)c(=O)o1 | – | inactive | > 200 µM | – | inactive | inactive | –
CCCCCCCCCCCCc1c(O)cc(C)oc1=O | 16.1 µM | – | 57.2 µM | 3.5 | inactive | – | IC50 (Leishmania infantum [8]): 138 µM
Cc1cc(O)c(CC2CCCCC2)c(=O)o1 | – | inactive | > 200 µM | – | inactive | inactive | –
CCCCCCCCc1c(O)cc(C)oc1=O | 40 µM | inactive | 145 µM | 3.6 | inactive | – | –
Cc1cc(O)c(C(=S)NC2CCCCC2)c(=O)o1 | 90.5 µM | inactive | 177 µM | 1.9 | inactive | – | –
Cc1cc(O)c(C(=O)Nc2ccc3c(c2)OCO3)c(=O)o1 | – | inactive | > 200 µM | – | inactive | inactive | –
Cc1cc(O)c(CCC2CCCCC2)c(=O)o1 | 32.2 µM | inactive | 109 µM | 3.4 | inactive | – | –
CCCCCCCCCCCC(=O)c1c(O)cc(C)oc1=O | 1.3 µM | inactive | 90.3 µM | 71.1 | inactive | – | –
Cc1cc(O)c(C(=O)Nc2ccc(OCc3ccccc3)cc2)c(=O)o1 | – | inactive | > 200 µM | – | inactive | inactive | –
CCCCCCCNC(=O)c1c(O)cc(C)oc1=O | 78.1 µM | inactive | 187 µM | 2.4 | inactive | – | –
